Data from patent US4650855A, “Glycopeptide antibiotic L 17046” (Gruppo Lepetit S.p.A., priority 1983, dated 1987).
In brackets after ≈: the same amount, converted by molar mass.

Experiments:
[1] = test system: Staplylococcus aureus Tour; assay: In vitro antibacterial activity, two-fold dilution method in microtiter system (MIC); assay type: cell-based, Staphylococcus aureus
Experimental: (§1) Isosensitest broth (Oxoid) and Todd-Hewitt broth (Difco) were used for Staphylococci and Streptococci, respectively. Broth cultures were diluted so that the final inoculum was about 10^4 colony forming units/ml (CFU/ml).

[2] = Potentiometric titration profile; assay type: physicochemical; conditions: methylcellosolve:water 4:1, titration with 0.01 N NaOH after excess 0.01 N HCl
[3] = test system: gram-positive bacteria; assay: In vitro antibacterial activity, spectrum; assay type: cell-based
Experimental: as §1

[4] = test system: Staphylococcus epidermidis ATCC 12228; assay: In vitro antibacterial activity, two-fold dilution method in microtiter system (MIC); assay type: cell-based; conditions: Isosensitest broth, inoculum about 10^4 CFU/ml, 18-24 h at 37° C.
Experimental: as §1

[5] = test system: Streptococcus faecalis ATCC 7080; assay: as above; assay type: cell-based; conditions: Todd-Hewitt broth, inoculum about 10^4 CFU/ml, 18-24 h at 37° C.
Experimental: as §1

[6] = test system: Streptococcus dysgalactiae ATCC 9926; assay: as above; assay type: cell-based; conditions: Todd-Hewitt broth, inoculum about 10^4 CFU/ml, 18-24 h at 37° C.
Experimental: as §1

[7] = test system: Staphylococcus aureus ATCC 6538; assay: as above; assay type: cell-based; conditions: Isosensitest broth, inoculum about 10^4 CFU/ml, 18-24 h at 37° C.
Experimental: as §1

[8] = test system: Streptococcus pneumoniae UC 41; assay: as above; assay type: cell-based; conditions: Todd-Hewitt broth, inoculum about 10^4 CFU/ml, 18-24 h at 37° C.
Experimental: as §1

[9] = test system: Streptococcus pyogenes C 203; assay: as above; assay type: cell-based; conditions: Todd-Hewitt broth, inoculum about 10^4 CFU/ml, 18-24 h at 37° C.
Experimental: as §1

[10] = test system: S. epidermidis L 785; assay: MIC against clinical isolates of coagulase-negative staphylococci; assay type: cell-based; conditions: clinical isolate, methicillin-resistant strain
Experimental: as §1
(§2) Its MICs […] against some clinical isolates of the above microbial strains are listed below in Table II: […]

[11] = test system: S. epidermidis L 1378; assay: as above; assay type: cell-based; conditions: clinical isolate
Experimental: as §1, §2

[12] = test system: S. epidermidis L 1142; assay: as above; assay type: cell-based; conditions: clinical isolate, methicillin-resistant strain
Experimental: as §1, §2

[13] = test system: S. epidermidis L 835; assay: as above; assay type: cell-based; conditions: clinical isolate, methicillin-resistant strain
Experimental: as §1, §2

[14] = test system: S. saprophyticus L 1141; assay: as above; assay type: cell-based; conditions: clinical isolate
Experimental: as §1, §2

[15] = test system: coagulase-negative staphylocci (S. epidermidis, S. saprophyticus); assay: Effectiveness against coagulase-negative staphylococci; assay type: cell-based
Source text: as §2

[16] = Solubility; assay type: physicochemical
[17] = test system: mice; assay: Approximate acute toxicity in mice; assay type: in vivo; conditions: acute toxicity (i.p.), administered by i.m. route as printed

SMILES: CC(=O)N[C@@H]1[C@@H](O[C@H]2c3ccc(c(Cl)c3)Oc3cc4cc(c3O)Oc3ccc(cc3Cl)C[C@@H]3NC(=O)[C@@H](N)c5ccc(O)c(c5)Oc5cc(O)cc(c5)[C@@H](NC3=O)C(=O)N[C@@H]4C(=O)N[C@@H]3C(=O)N[C@H]2C(=O)N[C@@H](C(=O)O)c2cc(O)cc(O)c2-c2cc3ccc2O)O[C@@H](CO)[C@H](O)[C@H]1O (stereo in doubt) [antibiotic L 17046]
- MIC ([1]; Isosensitest broth + 30% bovine serum): 0.4 mg/L
- MIC ([1]; Isosensitest broth, inoculum about 10^4 CFU/ml, 18-24 h at 37° C.): 0.2 mg/L (≈ 0.143 µM)
- pH1/2 value, third titration slope ([2]; five equivalents): 11
- pH1/2 value, first titration slope ([2]; one equivalent): 5.0
- pH1/2 value, second titration slope ([2]; one equivalent): 7.0
- in vitro antibacterial activity (spectrum) [3]: mainly active against gram-positive bacteria
- MIC [4]: 0.05 mg/L (≈ 0.0357 µM)
- MIC [5]: 1.6 mg/L (≈ 1.14 µM)
- MIC [6]: 0.8 mg/L (≈ 0.571 µM)
- MIC [7]: 0.2 mg/L (≈ 0.143 µM)
- MIC [8]: 1.6 mg/L (≈ 1.14 µM)
- MIC [9]: 1.6 mg/L (≈ 1.14 µM)
- MIC [10]: 0.05 mg/L (≈ 0.0357 µM)
- MIC [11]: 0.05 mg/L (≈ 0.0357 µM)
- MIC [12]: 0.1 mg/L (≈ 0.0713 µM)
- MIC [13]: 0.1 mg/L (≈ 0.0713 µM)
- MIC [14]: 0.1 mg/L (≈ 0.0713 µM)
- effectiveness against coagulase-negative staphylococci [15]: particularly effective
- solubility ([16]; in highly concentrated mineral acids): insoluble
- solubility ([16]; in methanol): sligltly soluble
- solubility ([16]; in water at pH>8.0, dimethylformamide, dimethylsulfoxide, propyleneglycol and methylcellosolve): freely soluble
- approximate LD50 [17]: about 850 mg/kg
